Measurements from publication PMC6071225 (Viruses, 2018).

Key:
[1] = system: H275Y/S247N NA2009; format: biochemical, A/California/07/2009 (H1N1) influenza virus
[2] = biological target: I223V NA2009; format: biochemical, A/California/07/2009 (H1N1) influenza virus
[3] = system: NA with H275Y mutation, strain A/WSN/1933 (H1N1); conditions: cited from earlier work
[4] = system: H275Y NA2009; format: binding, A/California/07/2009 (H1N1) influenza virus
[5] = biological target: H275Y NA2009; format: biochemical, A/California/07/2009 (H1N1) influenza virus
[6] = system: H275Y/S247N 2009 pandemic H1N1 virus; conditions: cited from earlier work
[7] = system: H275Y/I223V 2009 pandemic H1N1 virus; conditions: cited from earlier work
[8] = system: S247N NA2009; format: biochemical, A/California/07/2009 (H1N1) influenza virus
[9] = system: S247N NA2009; format: binding, A/California/07/2009 (H1N1) influenza virus
[10] = system: H275Y/I223V NA2009; format: biochemical, A/California/07/2009 (H1N1) influenza virus
[11] = system: I223V NA2009; format: binding, A/California/07/2009 (H1N1) influenza virus

In the case of `CCC(CC)O[C@@H]1C=C(C(=O)O)C[C@H](N)[C@H]1NC(C)=O` [oseltamivir carboxylate], the “Fold Ki” value [1] is reported as 9000 fold, the Ki [1] is reported as 220 µM and the “increase in Ki compared to the H275Y single mutant” value [1] is reported as 8 fold. For the same molecule, the “increase in Ki compared to the S247N single mutant” value [1] was 500 fold, the Ki [2] was 0.7 ± 0.1 µM and the “reduction in susceptibility conferred by His to Tyr mutation at position 275” value [3] was 750 fold. For the same molecule, the “enthalpy change less favorable than the wt value” [4] was 8.7 kcal/mol, the “more favorable entropic contribution (referenced to the wt value)” value [4] was 6 kcal/mol and the Kd ([4]; pH 6.15) was 13.2 µM. The ΔG ([4]; pH 6.15) was -6.7 ± 0.03 kcal/mol, the ΔH ([4]; pH 6.15) was -2.1 ± 0.04 kcal/mol and the “−T·ΔS” value ([4]; pH 6.15) was -4.6 ± 0.1 kcal/mol. For the same molecule, the Ki [5] was 27 µM, the “enhanced oseltamivir-resistant phenotype compared to the recombinant wt virus” value [6] was 7000 fold and the “enhanced oseltamivir-resistant phenotype compared to the recombinant wt virus” value [7] was 1733 fold. For the same molecule, the “Fold Ki” value [8] was 19 fold, the Ki [8] was 0.45 ± 0.04 µM and the “entropic contribution of binding compared to wt” value [9] was “almost unaffected”. For the same molecule, the “less favorable enthalpy change compared to wt” value [9] was 0.4 kcal/mol, the Kd ([9]; pH 6.15) was 0.41 ± 0.02 µM and the ΔG ([9]; pH 6.15) was -8.7 ± 0.03 kcal/mol. The ΔH ([9]; pH 6.15) was -10.4 ± 0.1 kcal/mol, the “−T·ΔS” value ([9]; pH 6.15) was 1.7 ± 0.1 kcal/mol and the “Fold Ki” value [10] was 3900 fold. For the same molecule, the Ki [10] was 94 µM, the “increase in Ki compared to H275Y NA2009” value [10] was “more than three-fold” and the “less favorable enthalpy change compared to wt” value [11] was 1.4 kcal/mol. For the same molecule, the “more favorable entropic contribution compared to wt” value [11] was 0.6 kcal/mol, the Kd ([11]; pH 6.15) was 0.52 ± 0.03 µM and the ΔG ([11]; pH 6.15) was -8.6 ± 0.1 kcal/mol. The ΔH ([11]; pH 6.15) was -9.4 ± 0.1 kcal/mol and the “−T·ΔS” value ([11]; pH 6.15) was 0.9 ± 0.2 kcal/mol.

For `CCC(CC)[C@H](NC(C)=O)[C@@H]1[C@H](O)[C@@H](C(=O)O)C[C@H]1N=C(N)N` [peramivir], the “reduction in susceptibility conferred by His to Tyr mutation at position 275” value [3] is given as 260 fold.
